In brackets after ≈: the same amount, converted by molar mass. Where a SMILES comes first, the peptide text is derived from it. Bridges are numbered along the chain shown (N, C = ends). [ ]: non-standard residue; d: D form. The star is where a group is joined. X46 = O=C(c1cc(Br)nc(Br)c1)*; X36 = O=C(c1ncc(Br)cc1Br)*; X13 = O=C(c1ccnc(Br)c1)*; X25 = O=C(c1ccnc(Cl)c1)*; X29 = O=C(c1cc(Cl)ccn1)*; X33 = O=C(c1cncc(Br)c1)*; Dab = NCC[C@H](N)C(=O)O; X40 = Cc1cncc(C(=O)*)c1; Abu = CC[C@H](N)C(=O)O; Dap = NC[C@H](N)C(=O)O
Key:
Type in all cases: cell-based
[1] = test system: Acinetobacter baumannii ATCC 17978; conditions: ATCC 17978
Method in brief: (§1)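 The read-out is the MIC, obtained by CLSI broth microdilution (M100-S24) in cation-adjusted Mueller-Hinton broth. The compounds were lipopeptide TFA salts, and polymyxin B sulphate served as control.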

[2] = test system: Acinetobacter baumannii FADDI-AB034; conditions: FADDI-AB034
Method in brief: as §1

[3] = test system: Enterobacter cloacae FADDI-EC001; conditions: FADDI-EC001
Method in brief: (§2)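 In cation-adjusted Mueller-Hinton broth, each lipopeptide (TFA salt) was titrated against the bacteria by microdilution and the minimum inhibitory concentration recorded per CLSI M100-S24; polymyxin B sulphate ran in parallel.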

[4] = test system: Enterobacter cloacae FADDI-EC003; conditions: FADDI-EC003
Method in brief: as §1

[5] = test system: Enterobacter cloacae FADDI-EC006; conditions: FADDI-EC006
Method in brief: as §1

[6] = test system: Klebsiella pneumoniae FADDI-KP022; conditions: FADDI-KP022
Method in brief: as §1

[7] = test system: Klebsiella pneumoniae FADDI-KP032; conditions: FADDI-KP032
Method in brief: as §1

[8] = test system: Klebsiella pneumoniae Kp BM1; conditions: Kp BM1
Method in brief: as §2

[9] = test system: Pseudomonas aeruginosa ATCC 27853; conditions: ATCC 27853
Method in brief: as §1

[10] = test system: Pseudomonas aeruginosa FADDI-PA01; conditions: FADDI-
Method in brief: as §1

[11] = test system: Pseudomonas aeruginosa FADDI-PA022; conditions: FADDI-PA022
Method in brief: as §1

[12] = test system: Pseudomonas aeruginosa FADDI-PA038; conditions: FADDI-PA038
Method in brief: as §1

[13] = test system: Acinetobacter baumannii FADDI-AB030; assay: microbe, parasite or virus in culture; conditions: FADDI-AB030
Method in brief: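 Broth microdilution MIC in cation-adjusted Mueller-Hinton broth per CLSI M100-S24; lipopeptides tested as TFA salts. FADDI-AB030 is a multidrug-resistant clinical isolate. Polymyxin B sulphate served as control.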

Row | SMILES | Minimum inhibitory concentration [1] | Minimum inhibitory concentration [2] | Minimum inhibitory concentration [3] | Minimum inhibitory concentration [4] | Minimum inhibitory concentration [5] | Minimum inhibitory concentration [6] | Minimum inhibitory concentration [7] | Minimum inhibitory concentration [8] | Minimum inhibitory concentration [9] | Minimum inhibitory concentration [10] | Minimum inhibitory concentration [11] | Minimum inhibitory concentration [12] | Minimum inhibitory concentration [13]
1 | CC[C@@H]1NC(=O)[C@@H](CC(C)C)NC(=O)[C@H](CCN)NC(=O)[C@@H](NC(=O)[C@H](CN)NC(=O)[C@@H](NC(=O)[C@H](CCN)NC(=O)c2cncc(Br)c2)[C@@H](C)O)CCNC(=O)[C@H]([C@@H](C)O)NC(=O)[C@H](CCN)NC(=O)[C@H](CCN)NC1=O [Compound 23] (X33-[Dab]T[Dap][Dab][Dab][dL][Abu][Dab][Dab]T; lactam 4-C) | 2 µg/mL (≈ 1.71 µM) | 0.5 µg/mL (≈ 0.427 µM) | 0.5 µg/mL (≈ 0.427 µM) | 0.5 µg/mL (≈ 0.427 µM) | 4 µg/mL (≈ 3.42 µM) | <0.125 µg/mL | 0.5 µg/mL (≈ 0.427 µM) | 0.25 µg/mL (≈ 0.213 µM) | 0.25 µg/mL (≈ 0.213 µM) | 0.5 µg/mL (≈ 0.427 µM) | 0.25 µg/mL (≈ 0.213 µM) | 0.5 µg/mL (≈ 0.427 µM) | 0.5 µg/mL (≈ 0.427 µM)
2 | CC[C@@H]1NC(=O)[C@@H](CC(C)C)NC(=O)[C@H](CCN)NC(=O)[C@@H](NC(=O)[C@H](CN)NC(=O)[C@@H](NC(=O)[C@H](CCN)NC(=O)c2ccnc(Cl)c2)[C@@H](C)O)CCNC(=O)[C@H]([C@@H](C)O)NC(=O)[C@H](CCN)NC(=O)[C@H](CCN)NC1=O [Compound 24] (X25-[Dab]T[Dap][Dab][Dab][dL][Abu][Dab][Dab]T; lactam 4-C) | 2 µg/mL (≈ 1.78 µM) | 1 µg/mL (≈ 0.888 µM) | 0.25 µg/mL (≈ 0.222 µM) | 0.25 µg/mL (≈ 0.222 µM) | 4 µg/mL (≈ 3.55 µM) | <0.125 µg/mL | 0.5 µg/mL (≈ 0.444 µM) | 0.25 µg/mL (≈ 0.222 µM) | 0.25 µg/mL (≈ 0.222 µM) | 0.25 µg/mL (≈ 0.222 µM) | 0.25 µg/mL (≈ 0.222 µM) | 1 µg/mL (≈ 0.888 µM) | 1 µg/mL (≈ 0.888 µM)
3 | CC[C@@H]1NC(=O)[C@@H](CC(C)C)NC(=O)[C@H](CCN)NC(=O)[C@@H](NC(=O)[C@H](CN)NC(=O)[C@@H](NC(=O)[C@H](CCN)NC(=O)c2ccnc(Br)c2)[C@@H](C)O)CCNC(=O)[C@H]([C@@H](C)O)NC(=O)[C@H](CCN)NC(=O)[C@H](CCN)NC1=O [Compound 25] (X13-[Dab]T[Dap][Dab][Dab][dL][Abu][Dab][Dab]T; lactam 4-C) | 1 µg/mL (≈ 0.854 µM) | 1 µg/mL (≈ 0.854 µM) | 0.5 µg/mL (≈ 0.427 µM) | <0.125 µg/mL | 2 µg/mL (≈ 1.71 µM) | <0.125 µg/mL | 0.25 µg/mL (≈ 0.213 µM) | 0.25 µg/mL (≈ 0.213 µM) | 0.25 µg/mL (≈ 0.213 µM) | 0.25 µg/mL (≈ 0.213 µM) | 0.25 µg/mL (≈ 0.213 µM) | 1 µg/mL (≈ 0.854 µM) | 1 µg/mL (≈ 0.854 µM)
4 | CC[C@@H]1NC(=O)[C@@H](CC(C)C)NC(=O)[C@H](CCN)NC(=O)[C@@H](NC(=O)[C@H](CN)NC(=O)[C@@H](NC(=O)[C@H](CCN)NC(=O)c2cc(Cl)ccn2)[C@@H](C)O)CCNC(=O)[C@H]([C@@H](C)O)NC(=O)[C@H](CCN)NC(=O)[C@H](CCN)NC1=O [Compound 26] (X29-[Dab]T[Dap][Dab][Dab][dL][Abu][Dab][Dab]T; lactam 4-C) | 0.5 µg/mL (≈ 0.444 µM) | 0.5 µg/mL (≈ 0.444 µM) | 0.25 µg/mL (≈ 0.222 µM) | <0.125 µg/mL | 2 µg/mL (≈ 1.78 µM) | <0.125 µg/mL | 0.25 µg/mL (≈ 0.222 µM) | 0.25 µg/mL (≈ 0.222 µM) | 0.25 µg/mL (≈ 0.222 µM) | 0.25 µg/mL (≈ 0.222 µM) | 0.25 µg/mL (≈ 0.222 µM) | 0.5 µg/mL (≈ 0.444 µM) | 0.5 µg/mL (≈ 0.444 µM)
5 | CC[C@@H]1NC(=O)[C@@H](CC(C)C)NC(=O)[C@H](CCN)NC(=O)[C@@H](NC(=O)[C@H](CN)NC(=O)[C@@H](NC(=O)[C@H](CCN)NC(=O)c2cc(Br)nc(Br)c2)[C@@H](C)O)CCNC(=O)[C@H]([C@@H](C)O)NC(=O)[C@H](CCN)NC(=O)[C@H](CCN)NC1=O [Compound 28] (X46-[Dab]T[Dap][Dab][Dab][dL][Abu][Dab][Dab]T; lactam 4-C) | 0.25 µg/mL (≈ 0.2 µM) | 0.25 µg/mL (≈ 0.2 µM) | 0.25 µg/mL (≈ 0.2 µM) | 0.25 µg/mL (≈ 0.2 µM) | <0.125 µg/mL | <0.125 µg/mL | 0.25 µg/mL (≈ 0.2 µM) | 0.25 µg/mL (≈ 0.2 µM) | 0.25 µg/mL (≈ 0.2 µM) | 1 µg/mL (≈ 0.8 µM) | 0.25 µg/mL (≈ 0.2 µM) | 1 µg/mL (≈ 0.8 µM) | 0.25 µg/mL (≈ 0.2 µM)
6 | CC(C)C[C@H]1NC(=O)[C@H](CCN)NC(=O)[C@@H](NC(=O)[C@H](CN)NC(=O)[C@@H](NC(=O)[C@H](CCN)NC(=O)c2ncc(Br)cc2Br)[C@@H](C)O)CCNC(=O)[C@H]([C@@H](C)O)NC(=O)[C@H](CCN)NC(=O)[C@H](CCN)NC(=O)[C@H]([C@@H](C)O)NC1=O [Compound 29] (X36-[Dab]T[Dap][Dab][Dab][dL]T[Dab][Dab]T; lactam 4-C) | 2 µg/mL (≈ 1.58 µM) | 2 µg/mL (≈ 1.58 µM) | 0.25 µg/mL (≈ 0.197 µM) | 0.25 µg/mL (≈ 0.197 µM) | <0.125 µg/mL | 0.25 µg/mL (≈ 0.197 µM) | 1 µg/mL (≈ 0.79 µM) | 0.5 µg/mL (≈ 0.395 µM) | 1 µg/mL (≈ 0.79 µM) | 0.5 µg/mL (≈ 0.395 µM) | 0.25 µg/mL (≈ 0.197 µM) | 1 µg/mL (≈ 0.79 µM) | 1 µg/mL (≈ 0.79 µM)
7 | CC[C@@H]1NC(=O)[C@@H](CC(C)C)NC(=O)[C@H](CCN)NC(=O)[C@@H](NC(=O)[C@H](CN)NC(=O)[C@@H](NC(=O)[C@H](CCN)NC(=O)c2cncc(C)c2)[C@@H](C)O)CCNC(=O)[C@H]([C@@H](C)O)NC(=O)[C@H](CCN)NC(=O)[C@H](CCN)NC1=O [Compound 30] (X40-[Dab]T[Dap][Dab][Dab][dL][Abu][Dab][Dab]T; lactam 4-C) | 8 µg/mL (≈ 7.23 µM) | 4 µg/mL (≈ 3.62 µM) | 0.5 µg/mL (≈ 0.452 µM) | 0.5 µg/mL (≈ 0.452 µM) | 2 µg/mL (≈ 1.81 µM) | 0.25 µg/mL (≈ 0.226 µM) | 2 µg/mL (≈ 1.81 µM) | 1 µg/mL (≈ 0.904 µM) | 0.5 µg/mL (≈ 0.452 µM) | 0.5 µg/mL (≈ 0.452 µM) | 0.5 µg/mL (≈ 0.452 µM) | 1 µg/mL (≈ 0.904 µM) | 4 µg/mL (≈ 3.62 µM)

Source: patent publication US11225505B2, “Antimicrobial polymyxin derivative compounds” (MONASH UNIVERSITY, priority 2015, dated 2022)
